This is an account of results in patent EP4793271A1, “NEUROPROTECTIVE AGENT” (National Center of Neurology and Psychiatry, priority 2023, dated 2025).

Each structure is given as a SMILES string. Where only a bound is given, the exact number is not on record here.

In experiment [1] the test system is primary cultured cells of mouse fetus-derived dorsal root ganglia (DRGs). Briefly: Suppression of axonal degeneration after axotomy in DRG explant culture. It counts as cell-based. The note with it: minimum concentration at which axonal degeneration was suppressed (DI 0.3 or less), 24 hours after axotomy; for minimal effective concentration: Mus musculus, read-out: Evaluation on protection against degeneration. On the procedure:
The compound of the present invention was studied for its protective effect against axonal injury using primary cultured cells of mouse fetus-derived dorsal root ganglia (DRGs).
DRGs were collected from a fetus derived from an ICR mouse (13.5 days of pregnancy). DRGs were cultured using a plate coated by incubation with 0.1 mg/mL poly-L-lysine at 4°C for 24 hours or longer, washing with PBS, and then incubation with 2.5 µg/mL Cultrex Mouse Laminin I at 37°C for 4 to 6 hours.
One of DRGs collected was plated to each well of the coated 24-well plate. The DRG was cultured in a nicotinamide-free medium for neuron (supplemented with 10% FBS, 1 mM glutamine, 50 ng/mL NGF2.5S, and penicillin-streptomycin) for 24 hours at maximum from the start of culture and then cultured in a nicotinamide-free medium for neuron (supplemented with 2% MACS NeuroBrew-21, 50 ng/mL NGF2.5S, 1% Glutamax, 20 µM uridine, 20 µM 5-fluoro-2'-deoxyuridine, and penicillin-streptomycin) for 7 to 8 days.
The nicotinamide-free medium for neuron was prepared so as to have the same constituents as those of the composition published in a previously reported paper (Brewer et al., J. Neuroscience Research 35: 567-576) except for nicotinamide with reference to this composition.
The test compound is dissolved in DMSO and added to cells such that the final concentration of DMSO is 0.1% (1000-fold dilution). 10 mM, 1 mM, 100 µM, 10 µM, 1 µM, and 100 nM samples of the test compound are prepared and added at a 1000-fold dilution to cells.
Axotomy was carried out by scooping out a cell body portion of the cultured DRG with a chip for a micropipette. The test compound was added at the following concentrations (final concentration: 10 µM, 1 µM, 100 nM, 10 nM, 1 nM, and 100 pM) within 30 minutes after axotomy. The compound was evaluated for its protective effect against axonal degeneration by imaging (Leica DMIL microscope, 20× objective lens) the state of neurites 24 hours after axotomy and evaluating the degree of degeneration. The degree of degeneration was quantified using a program uniquely developed using the R language. A degeneration index (DI) was used as an indicator for the degree of degeneration, and the ratio of the area of a fragmented axon to the total area of axons was calculated as defined in the equation of Expression 2. Suppressed axonal degeneration was evaluated when the value of DI was 0.3 or less. The minimum concentration at which axonal degeneration was suppressed was determined for each compound. Degeneratioin index (DI) = (Degenerated axons)/(All axons) [formula]
The axonal protective activity was evaluated as A ≤ 0.01 µM, 0.01 µM < B ≤ 0.1 µM, and 0.1 µM < C ≤ 1 µM depending on the minimum concentration at which axonal degeneration was suppressed.

For another experiment, the target named is T1, hSARM1 (Homo sapiens, UniProt Q6SZW1).
T1 sequence (Q6SZW1 28-724): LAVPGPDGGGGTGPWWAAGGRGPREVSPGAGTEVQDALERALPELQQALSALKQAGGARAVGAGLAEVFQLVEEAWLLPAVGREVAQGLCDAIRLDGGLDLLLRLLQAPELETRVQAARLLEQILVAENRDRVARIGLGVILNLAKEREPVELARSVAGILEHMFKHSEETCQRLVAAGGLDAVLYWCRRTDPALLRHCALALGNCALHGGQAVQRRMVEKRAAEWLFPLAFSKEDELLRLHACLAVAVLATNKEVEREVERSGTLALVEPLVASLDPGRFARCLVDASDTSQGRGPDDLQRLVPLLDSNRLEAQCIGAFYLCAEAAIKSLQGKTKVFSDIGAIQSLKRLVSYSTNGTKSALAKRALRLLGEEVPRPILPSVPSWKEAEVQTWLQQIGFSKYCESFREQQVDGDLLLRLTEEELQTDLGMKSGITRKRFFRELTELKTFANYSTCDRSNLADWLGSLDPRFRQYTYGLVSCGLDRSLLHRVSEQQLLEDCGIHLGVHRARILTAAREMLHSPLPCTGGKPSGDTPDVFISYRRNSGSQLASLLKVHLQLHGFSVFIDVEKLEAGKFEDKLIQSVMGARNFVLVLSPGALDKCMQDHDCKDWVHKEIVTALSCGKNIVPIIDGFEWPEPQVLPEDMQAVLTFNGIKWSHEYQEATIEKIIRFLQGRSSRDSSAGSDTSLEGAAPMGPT
Description: Human SARM1 activity measurement in HEK293 cells transiently transfected with ΔN-hSARM1 (PC6 fluorescent probe). It counts as cell-based. Set-up: expressed in transfected cells; host or cells: HEK293, pcDNA3 expression vector. The note with it: inhibition rate; compound 30 µM; PC6 50 µM; HEK293 cells expressing ΔN-hSARM1; approximately 48 hours from transfection; read-out: Evaluation on hSARM1 inhibitory. On the procedure: HEK293 cells cultured in a prepared medium of nicotinamide-free DMEM (Dulbecco's modified Eagle medium) supplemented with 10% FBS (BioSera), a 1% penicillin-streptomycin solution (FUJIFILM Wako Pure Chemical Corp.), 5 μM nicotinamide were inoculated at approximately 50,000 cells/well to a 96-well microplate, and the cells were cultured at 37°C under 5% CO2, transiently transfected on the next day with a pcDNA3 expression vector containing a DNA sequence (SEQ ID NO: 1) deficient in a mitochondrial targeting sequence encoded by an N-terminal 78-base sequence in cDNA encoding human sterile α- and armadillo-motif-containing protein (hSARM1) using PEI MAX(R) reagent (PolySciences Inc.), and forced to express ΔN-hSARM1 (SEQ ID NO: 2). Approximately 8 hours later, PC6, which reacts as a substrate of SARM1-specific base exchange reaction and functions as a fluorescent probe, was added thereto at a final concentration of 50 μM, and intracellular hSARM1 activity was measured (Li et al, eLife 2021 10: e67381). A compound for inhibitory activity evaluation was added at a final concentration of 30 μM at the same time with PC6, while dimethyl sulfoxide (Nacalai Tesque Inc.) was added to samples of a control group at the same time with PC6. The cells were incubated at 37°C under 5% CO2 for approximately 48 hours from transfection, followed by fluorescent signal measurement using SpectraMax M2 (Molecular Devices) (excitation: 405 nm, fluorescence: 525 nm, fluorescence cutoff: 515 nm). Results of this screening are reported as an inhibition rate (%) relative to a negative control defined as follows by using fluorescence intensity measured from a control group without transfection with ΔN-hSARM1 as a background whereas using fluorescence intensity measured from a control group transfected with ΔN-hSARM1 as the negative control. Inhibitory rate (%) = 100-(([…]-Background))/((Signalofthenegativecontrol-Background)) × 100 [formula] The nicotinamide-free medium was prepared so as to have the same composition as that of DMEM having known composition which is generally used in the art except for nicotinamide. […]

`O=C(/C=C/c1cccnc1)NCc1ccc(NC(=O)/C=C/c2cccnc2)cc1` [compound 62]: in experiment [1], the minimal effective concentration is not above 0.01 µM. Moreover, on hSARM1, the inhibition at 30 µM was more than 75%.

Regarding `O=C(Cc1cccnc1)NCc1ccc(NC(=O)c2ccccc2)nc1` [Compound 141], the “Evaluation on protection against degeneration” value (“Evaluation on protection” below) in experiment [1] is reported as “C (0.1 µM < C ≤ 1 µM)”.

Consider `O=C(NCCCOc1ccc(CNC(=O)c2cccnc2)cc1)c1cccnc1` [compound 52], for which, in experiment [1], the minimal effective concentration is not above 0.01 µM. The inhibition at 30 µM at hSARM1 was more than 50%.

For the compound `O=C(Cc1cccc(C(F)(F)F)c1)Nc1ccc(CNC(=O)c2cccnc2)cn1` [Compound 156], in experiment [1], the minimal effective concentration is not above 0.01 µM. For the same compound, at hSARM1, the inhibition at 30 µM was more than 75%.

In the case of `O=C(COc1ccccc1)Nc1ccc(CNC(=O)c2cccnc2)cn1` [Compound 147], the minimal effective concentration in experiment [1] is not above 0.01 µM. Moreover, the inhibition at 30 µM at hSARM1 was more than 75%.

Consider `O=C(/C=C/c1cccnc1)NCCCNC1CCN(C(=O)c2ccccc2)CC1` [compound 12], for which the minimal effective concentration in experiment [1] is 0.01 to 0.1 µM. On hSARM1, the inhibition at 30 µM was more than 75%.

Regarding `O=C(/C=C/c1cccnc1)NCCCCCCN1CCN(CCO)CC1` [compound 3], the minimal effective concentration in experiment [1] is not above 0.01 µM. Also, the inhibition at 30 µM at hSARM1 is more than 75%.

Take `O=C(/C=C/c1cccnc1)NCc1ccc(NC(=O)c2ccccc2)nc1` [compound 77]: the minimal effective concentration in experiment [1] was not above 0.01 µM. In addition, the inhibition at 30 µM on hSARM1 is more than 75%.

With `COCOc1cccc(OCCOCCNC(=O)/C=C/c2cccnc2)c1` [compound 29], the minimal effective concentration in experiment [1] was not above 0.01 µM. The inhibition at 30 µM on hSARM1 is more than 75%.

With `O=C(NCCOCCOc1ccc(CNC(=O)c2cccnc2)cc1)c1cccnc1` [compound 54], in experiment [1], the minimal effective concentration was not above 0.01 µM. Further, at hSARM1, the inhibition at 30 µM was more than 75%.

As for `NCc1ccc(C(=O)N2CCC(CCCCNC(=O)/C=C/c3cccnc3)CC2)cc1` [compound 1], the “Evaluation on protection” value in experiment [1] is “A (A ≤ 0.01 µM)”. Further, the inhibition at 30 µM at hSARM1 is more than 75%.

Regarding `O=C(/C=C/c1cccnc1)NCCCCCCNC(=O)/C=C/c1cccnc1` [compound 38], the minimal effective concentration in experiment [1] was not above 0.01 µM. Moreover, the inhibition at 30 µM on hSARM1 is more than 75%.

For the compound `C/C(=C\C(=O)NCCOCCOc1ccc(CNC(=O)c2cccnc2)cc1)c1cccnc1` [compound 56], the minimal effective concentration in experiment [1] is not above 0.01 µM. Besides, at hSARM1, the inhibition at 30 µM was more than 50%.

On to `O=C(/C=C/c1cccnc1)NCCCOc1cccc(O)c1` [compound 23], for which, in experiment [1], the minimal effective concentration was not above 0.01 µM. Further, the inhibition at 30 µM at hSARM1 was more than 75%.

Consider `O=C(Cc1ccc(Cl)cc1)Nc1ccc(CNC(=O)c2cccnc2)cn1` [Compound 145], for which the minimal effective concentration in experiment [1] was not above 0.01 µM. Also, at hSARM1, the inhibition at 30 µM was more than 75%.

In the case of `O=C(Nc1ccc(CCc2ccc(NC(=O)c3cccnc3)cc2)cc1)c1cccnc1` [compound 101], in experiment [1], the minimal effective concentration was not above 0.01 µM. Besides, the inhibition at 30 µM at hSARM1 is more than 75%.

Turning to `O=C(/C=C/c1cccnc1)NCCOCCOc1cccc(O)c1` [compound 26], the minimal effective concentration in experiment [1] is not above 0.01 µM. The inhibition at 30 µM on hSARM1 is more than 75%.

As for `O=C(/C=C/c1cccnc1)NCCOCCOc1ccc(CNC(=O)c2ccccc2)cc1` [compound 14], the minimal effective concentration in experiment [1] was not above 0.01 µM. The inhibition at 30 µM on hSARM1 was more than 75%.

`CC(C)(C)OC(=O)N1CC(C(=O)Nc2ccc(CNC(=O)c3cccnc3)cn2)C1` [compound 94]: in experiment [1], the minimal effective concentration was not above 0.01 µM. Also, the inhibition at 30 µM on hSARM1 is more than 75%.

As to `CCC(=O)Nc1ccc(CNC(=O)c2cccnc2)cn1` [Compound 157], the “Evaluation on protection” value in experiment [1] was “A (A ≤ 0.01 µM)”. Further, the inhibition at 30 µM on hSARM1 was more than 10%.

`NCCOCCOCCOCCCCCCCCNC(=O)c1cccnc1` [compound 9]: the minimal effective concentration in experiment [1] was not above 0.01 µM. Moreover, the inhibition at 30 µM on hSARM1 was more than 75%.

With `O=C(/C=C/c1cccnc1)Nc1ccc(NC(=O)/C=C/c2cccnc2)cc1` [compound 58], the minimal effective concentration in experiment [1] was not above 0.01 µM. Moreover, the inhibition at 30 µM at hSARM1 is more than 75%.
